Measured values published in patent publication US6191282A, “Substituted 5-membered ring heterocycles comprising a bicyclic or tricyclic group their preparation and their use” (Hoechst Marion Roussel, priority 1993, dated 2001).
Where a name gives a salt, the structure may show the parent alone. Read-outs that look alike come from different tables or passages of the source.

Assays:
[1] = system: gel-filtered human thrombocytes; assay: Inhibition of the aggregation of gel-filtered human thrombocytes following stimulation with ADP or thrombin (Test method 1); type: cell-based; conditions: 1 mg/ml fibrinogen, 37° C., GFP from 2-4 donors
Method: As a functional test, measurement is made of the inhibition of the aggregation of gel-filtered human thrombocytes, following stimulation with ADP or thrombin, by the compounds according to the invention.
For this purpose, human thrombocytes were isolated from platelet-rich plasma (PRP) by gel filtration on Sepharose 2 B. The resulting suspension of gel-filtered platelets (GFP), which contained 3×10^8 platelets/ml, was activated in the presence of 1 mg/ml of fibrinogen either with 10 μM ADP or with 0.1 U/ml thrombin, and stirred in an aggregometer (PAP 4, Biodata, Hatboro, Penna., USA) at 37° C. and at 1000 revolutions per minute. The maximum increase in the translucency is taken as a measure of the aggregation. The test substances were added to the GFP at 37° C. and 2 min before activating with ADP or thrombin.

[2] = target: T1, fibrinogen receptor (glycoprotein IIb/IIIa) on intact, gel-filtered human thrombocytes (Homo sapiens, UniProt P05106+P08514); assay: Inhibition of 125I-fibrinogen binding to its receptor (glycoprotein IIb/IIIa) on intact, gel-filtered human thrombocytes (Test method 2); conditions: intact GFP, 10 μM ADP, 40 nmol/l 125I-fibrinogen, room temperature, 30 min; read-out: Ki, inhibition of the binding of 125I-fibrinogen, ADP-stimulated
T1 construct: endogenous in cells; host or cells: human thrombocytes isolated from platelet-rich plasma by gel filtration on Sepharose 2 B
T1 sequence (P08514 32-887 limits assumed): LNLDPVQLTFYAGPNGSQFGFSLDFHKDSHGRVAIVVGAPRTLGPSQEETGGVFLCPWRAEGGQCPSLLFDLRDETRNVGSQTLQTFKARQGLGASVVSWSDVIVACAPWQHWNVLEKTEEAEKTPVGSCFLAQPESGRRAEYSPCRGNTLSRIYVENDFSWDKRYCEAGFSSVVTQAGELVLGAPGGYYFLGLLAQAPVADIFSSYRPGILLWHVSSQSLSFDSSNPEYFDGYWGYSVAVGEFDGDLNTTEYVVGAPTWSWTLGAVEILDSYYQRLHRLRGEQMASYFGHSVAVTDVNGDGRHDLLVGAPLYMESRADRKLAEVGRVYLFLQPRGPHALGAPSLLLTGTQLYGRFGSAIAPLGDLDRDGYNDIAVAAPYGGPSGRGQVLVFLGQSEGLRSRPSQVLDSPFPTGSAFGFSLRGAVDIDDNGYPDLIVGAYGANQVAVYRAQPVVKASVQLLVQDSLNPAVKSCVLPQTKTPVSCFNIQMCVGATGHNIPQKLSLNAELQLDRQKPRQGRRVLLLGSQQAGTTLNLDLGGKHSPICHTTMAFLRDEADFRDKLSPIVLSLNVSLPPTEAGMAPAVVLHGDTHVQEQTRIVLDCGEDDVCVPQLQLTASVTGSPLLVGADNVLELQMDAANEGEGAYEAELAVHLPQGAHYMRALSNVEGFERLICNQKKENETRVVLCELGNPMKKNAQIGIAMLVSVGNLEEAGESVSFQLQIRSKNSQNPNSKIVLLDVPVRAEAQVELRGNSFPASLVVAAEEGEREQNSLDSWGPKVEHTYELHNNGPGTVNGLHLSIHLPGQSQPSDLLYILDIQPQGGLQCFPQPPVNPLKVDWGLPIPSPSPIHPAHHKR
T1 sequence (P08514 891-1039 partner limits assumed): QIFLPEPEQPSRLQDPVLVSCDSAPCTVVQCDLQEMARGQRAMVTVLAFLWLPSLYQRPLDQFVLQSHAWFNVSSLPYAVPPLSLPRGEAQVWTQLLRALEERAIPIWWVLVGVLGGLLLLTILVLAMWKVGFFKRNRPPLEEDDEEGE
T1 sequence (P05106 27-788): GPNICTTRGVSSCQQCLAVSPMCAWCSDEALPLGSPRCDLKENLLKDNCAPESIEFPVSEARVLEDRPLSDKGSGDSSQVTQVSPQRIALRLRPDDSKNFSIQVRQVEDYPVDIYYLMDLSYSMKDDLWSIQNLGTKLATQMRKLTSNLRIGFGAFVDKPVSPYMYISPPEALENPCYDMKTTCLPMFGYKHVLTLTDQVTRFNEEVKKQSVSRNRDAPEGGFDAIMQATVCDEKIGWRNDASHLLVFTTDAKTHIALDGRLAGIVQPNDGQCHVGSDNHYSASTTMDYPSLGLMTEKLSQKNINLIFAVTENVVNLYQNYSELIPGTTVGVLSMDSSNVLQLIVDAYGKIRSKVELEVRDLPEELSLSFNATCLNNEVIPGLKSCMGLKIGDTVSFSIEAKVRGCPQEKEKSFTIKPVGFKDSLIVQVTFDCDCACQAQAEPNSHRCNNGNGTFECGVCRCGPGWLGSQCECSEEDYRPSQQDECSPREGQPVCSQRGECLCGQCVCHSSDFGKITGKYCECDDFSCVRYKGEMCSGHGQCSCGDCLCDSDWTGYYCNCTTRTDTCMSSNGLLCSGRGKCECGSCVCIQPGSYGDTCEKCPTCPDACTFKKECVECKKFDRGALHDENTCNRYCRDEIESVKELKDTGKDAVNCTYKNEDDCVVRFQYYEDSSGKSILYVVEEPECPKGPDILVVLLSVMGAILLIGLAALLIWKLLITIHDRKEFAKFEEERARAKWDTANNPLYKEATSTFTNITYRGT
Method: The inhibition of the binding of fibrinogen to its receptor (glycoprotein IIb/IIIa) by the compounds according to the invention is tested on intact, gel-filtered human thrombocytes.
For this purpose, human thrombocytes were isolated from platelet-rich plasma (PRP) by gel filtration on Sepharose 2 B. A suspension of gel-filtered platelets (GFP) was obtained which contained 4×10^8platelets/ml. […] Aliquots of 100 μl were then added onto 20% sucrose, and the platelets were sedimented by being centrifuged for 2 minutes at 12,000 revolutions per minute. The supernatant was decanted carefully and completely and the remaining sediment was measured in a gamma counter. The specific binding was ascertained by subtracting the binding in the presence of an excess (10 μM) of unlabelled fibrinogen from the total bound radioactivity.

[3] = target: T2, isolated fibrinogen receptor (glycoprotein IIb/IIIa) (Homo sapiens, UniProt P05106+P08514); assay: Inhibition of 125I-fibrinogen binding to the isolated, immobilized receptor (glycoprotein IIb/IIIa) (Test method 3); conditions: isolated receptor immobilized in microtitre plates; read-out: Ki, inhibition of the binding of 125I-fibrinogen, ADP-stimulated
T2 construct: isolated from human thrombocytes and immobilized in microtitre plates; from tissue; host or cells: human thrombocytes (platelets), receptor isolated
T2 sequence (P08514 32-887 limits assumed): as the sequence (P08514 32-887 limits assumed) above
T2 sequence (P08514 891-1039 partner limits assumed): as the sequence (P08514 891-1039 partner limits assumed) above
T2 sequence (P05106 27-788): as the sequence (P05106 27-788) above
Method: The inhibition of the binding of fibrinogen to its receptor (glycoprotein IIb/IIIa) which is brought about by the compounds according to the invention is tested on the isolated receptor, which was isolated from human thrombocytes and immobilized in microtitre plates.

[4] = ADP-stimulated (10 μM ADP), read-out: IC50, inhibition of thrombocyte aggregation, ADP-stimulated
[5] = Thrombin-stimulated (0.1 U/ml thrombin), read-out: IC50, inhibition of thrombocyte aggregation, Thrombin-stimulated
[6] = Homo sapiens, ADP-stimulated (10 μM ADP), read-out: IC50, inhibition of thrombocyte aggregation, ADP-stimulated
[7] = Homo sapiens, Thrombin-stimulated (0.1 U/ml thrombin), read-out: IC50, inhibition of thrombocyte aggregation, Thrombin-stimulated

## CC1(c2ccc(C(=N)N)cc2)NC(=O)N(CC(=O)N[C@@H](CC(=O)O)c2ccccc2)C1=O (single isomer, unassigned) [Example 58, (S)-3-(((R or S)-4-(4-Aminoiminomethyl)phenyl)-4-methyl-2,5-dioxoimidazolidin-1-yl)acetylamino)-3-phenylpropionic acid]
[1]; [4]
  IC50: 0.02 µM
[1]; [5]
  IC50: 0.025 µM
[2]
  Ki: 0.0092 µM
[3]
  Ki: 0.000172 µM

## CC1(c2ccc(C(=N)N)cc2)NC(=O)N(CC(=O)N[C@@H](CC(=O)O)c2ccccc2)C1=O (stereo partly drawn) [Example 56, (S)-3-(((R,S)-4-(4-(aminoiminomethyl)phenyl)-4-methyl-2,5-dioxoimidazolidin-1-yl)acetylamino)-3-phenylpropionic acid hydrochloride]
[1]; [6]
  IC50: 0.1 µM
[1]; [7]
  IC50: 0.06 µM
[2]
  Ki: 0.0218 µM
[3]
  Ki: 0.000486 µM

## N=C(N)c1ccc(C2(C3CC3)NC(=O)N(CC(=O)N[C@@H](CC(=O)O)C(=O)N[C@H](C(=O)O)c3ccccc3)C2=O)cc1 (stereo partly drawn) [Example 26, ((R,S)-4-(4-(Aminoiminomethyl)phenyl)-4-cyclopropyl-2,5-dioxoimidazolidin-1-yl)acetyl-L-aspartyl-L-phenylglycine]
[1]; [6]
  IC50: 0.02 µM
[1]; [7]
  IC50: 0.04 µM
[3]
  Ki: 0.000117 µM

## CC1(c2ccc(C(=N)N)cc2)NC(=O)N(CC(=O)N[C@@H](CC(=O)O)c2ccccc2)C1=O (single isomer, unassigned) [Example 57, (S)-3-(((S or R)-4-(4-Aminoiminomethyl)phenyl)-4-methyl-2,5-dioxoimidazolidin-1-yl)acetylamino)-3-phenylpropionic acid]
[1]; [4]
  IC50: 6 µM
[1]; [5]
  IC50: 5 µM
[2]
  Ki: 1.97 µM
[3]
  Ki: 0.0373 µM

## CC1(c2ccc(C(=N)N)cc2)NC(=O)N(CC(=O)N[C@@H](CC(=O)O)C(=O)N[C@H](C(=O)O)c2ccccc2)C1=O (stereo partly drawn) [Example 1, ((R,S)-4-(4-(Aminoiminomethyl)phenyl)-4-methyl-2,5-dioxoimidazolidin-1-yl)-acetyl-L-aspartyl-L-phenylglycine]
[1]; [6]
  IC50: 0.04 µM
[1]; [7]
  IC50: 0.05 µM
[2]
  Ki: 0.0132 µM
[3]
  Ki: 0.000172 µM
